Results on 23 compounds are retold here after patent US9012446B2, “Amino-oxazines and amino-dihydrothiazine compounds as beta-secretase modulators and methods of use” (Amgen Inc., priority 2010, dated 2015).

SMILES strings stand for the structures.

BACE, sequence (P56817 46-501, species assumed): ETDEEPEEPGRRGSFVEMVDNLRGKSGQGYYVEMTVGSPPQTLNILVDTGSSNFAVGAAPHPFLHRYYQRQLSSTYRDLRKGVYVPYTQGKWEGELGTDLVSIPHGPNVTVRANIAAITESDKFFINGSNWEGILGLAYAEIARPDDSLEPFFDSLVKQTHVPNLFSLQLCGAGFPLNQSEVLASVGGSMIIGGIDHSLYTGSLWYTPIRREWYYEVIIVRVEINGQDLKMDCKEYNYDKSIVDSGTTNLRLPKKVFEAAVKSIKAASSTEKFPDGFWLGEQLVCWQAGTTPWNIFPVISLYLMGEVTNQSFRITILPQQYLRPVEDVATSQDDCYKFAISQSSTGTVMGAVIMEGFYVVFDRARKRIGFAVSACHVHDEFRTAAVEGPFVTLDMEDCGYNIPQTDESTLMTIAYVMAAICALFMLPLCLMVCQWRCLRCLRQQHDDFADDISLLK

The first assay concerns the target BACE (Homo sapiens, UniProt P56817). Kind of assay: In vitro enzymatic BACE FRET assay. The assay is classed as biochemical. As to conditions: average IC50, enzyme assay; read-out: BACE 1 FRET assay. How it is done:
In Vitro Enzymatic BACE FRET (Fluorescence Resonance Energy Transfer) Assay (Enzyme Assay Data in the Example Table I) The assay buffer used in this screen is 0.05 M acetate, pH 4.2, 10% DMSO final, 100 uM genapol (which is a nonionic detergent, below its Critical Micelle Concentration). The beta secretase enzyme (0.2 nM) is pre-incubated for one hour with inhibitors, typically in about 1 uL of DMSO according to a serial dilution, are added thereto. This assay is effectively started by the addition of FRET substrate (50 nM) and the combination is incubated for one hour. The FRET assay is terminated with by addition of Tris buffer, which raises the pH to neutrality, and the fluorescence is determined. The FRET substrate is a peptide with commercially available fluorophore and quencher, on opposite sides of the BACE cleavage site. Proteolytic cleavage of the FRET substrate releases quenching of fluorescence (excitation 488 nm and emission […]).
In the case of `NC1=N[C@@]2(CO[C@H]1C1CCCCC1)c1cc(-c3cccnc3F)ccc1Oc1cnc(Cl)cc12` (racemic) [Example 56A, (3′S,6′S)-3-chloro-6′-cyclohexyl-7-(2-fluoropyridin-3-yl)-2′,6′-dihydrospiro[chromeno[2,3-c]pyridine-5,3′-[1,4]oxazin]-5′-amine], the IC50 worked out at 30.7 nM.
Same read-out and setting: next, `NC1=N[C@]2(CO[C@H]1C1CCCCC1)c1cc(-c3cccnc3F)ccc1Oc1cnc(Cl)cc12` (racemic) [Example 56B, (3′R,6′S)-3-chloro-6′-cyclohexyl-7-(2-fluoropyridin-3-yl)-2′,6′-dihydrospiro[chromeno[2,3-c]pyridine-5,3′-[1,4]oxazin]-5′-amine]: 1280 nM.
In the case of `COc1cc(F)c2c(c1)C1(CCOC(N)=N1)c1cc(Br)ccc1O2` (racemic) [compound 20], the IC50 was found to be 15400 nM.
Turning to `NC1=N[C@]2(CCO1)c1cc(-c3cccnc3F)ccc1Oc1c2cc(-c2ccnc(F)c2)nc1F` (racemic) [compound 103], the IC50 is 2.2 nM.
Still for that read-out and setting: next, `COc1cc(F)c2c(c1)[C@@]1(CCSC(N)=N1)c1cc(-c3cccnc3F)ccc1O2` (racemic) [compound 191]: 87.3 nM; `NC1=N[C@@]2(COC1)c1cc(Br)ccc1Oc1cnc(Cl)cc12` (single isomer, unassigned) [Example 9A]: 4150 nM; `NC1=N[C@]2(COC1)c1cc(Br)ccc1Oc1cnc(Cl)cc12` (single isomer, unassigned) [Example 9B]: 23100 nM.
On to `NC1=NC2(COC1)c1cc(Br)ccc1Oc1cnc(Cl)cc12` (stereo not drawn) [compound 9], for which the IC50 came to 4130 nM.
As for `NC1=NC2(CCS1)c1cc(Br)ccc1Oc1ccc(I)cc12` (stereo not drawn) [compound 13], the IC50 was 9960 nM.
The same measure, in the same setting: in the case of `NC1=NC2(CCO1)c1cc(I)ccc1Oc1ncc(Br)cc12` (stereo not drawn) [compound 25] it was 16000 nM; in that of `COc1ccc2c(c1)[C@]1(COCC(N)=N1)c1cc(Br)ccc1O2` [compound 134], 7110 nM; in that of `COc1ccc2c(c1)C1(CCSC(N)=N1)c1cc(Br)ccc1O2` (stereo not drawn) [compound 136], 23700 nM.
With `NC1=N[C@@]2(CCO1)c1cc(-c3cccnc3F)ccc1Oc1cnc(-c3ccccc3)cc12` [compound 138], the IC50 worked out at 4.1 nM.
For `COc1cc(F)c2c(c1)[C@@]1(CCOC(N)=N1)c1cc(-c3cccnc3F)ccc1O2` [compound 174], the IC50 turned out to be 4220 nM.
The same measure, in the same setting: in the case of `COc1cc(F)c2c(c1)[C@@]1(CCSC(N)=N1)c1cc(-c3cccnc3F)ccc1O2` [compound 186] it was 9590 nM; in that of `NC1=N[C@@]2(CO[C@@H]1C(F)(F)F)c1cc(Br)ccc1Oc1cnc(Cl)cc12` [compound 205], 20000 nM.
As to `NC1=N[C@@]2(CCO1)c1cc(-c3cccnc3F)ccc1Oc1c2cc(-c2ccccc2)nc1F` [compound 230], the IC50 was determined as 2 nM.
Take `NC1=N[C@]2(CCO1)c1cc(-c3cccnc3F)ccc1Oc1c2cc(-c2ccccc2)nc1F` [compound 235]: the IC50 was found to be 176 nM.
For `CC1COC(N)=N[C@@]12c1cc(-c3cccnc3F)ccc1Oc1cnc(C3=CCCOC3)cc12` (stereo partly drawn) [compound 261], the IC50 is 890 nM.
`C[C@@H]1COC(N)=N[C@]12c1cc(-c3cccnc3F)ccc1Oc1cnc(C3=CCCOC3)cc12` [compound 262]: the IC50 was determined as 4.1 nM.
In the case of `C[C@H]1COC(N)=N[C@@]12c1cc(-c3cccnc3F)ccc1Oc1cnc(C3=CCCOC3)cc12` [compound 263], the IC50 is 449 nM.
As for `CC1COC(N)=N[C@]12c1cc(-c3cccnc3F)ccc1Oc1cnc(C3=CCCOC3)cc12` (stereo partly drawn) [compound 264], the IC50 was determined as 3.7 nM.

The subject of the next assay is Aβ40. Kind of assay: In vitro BACE cell-based assay (Aβ40 sandwich ELISA, cells stably expressing APP). Conditions: Homo sapiens, HEK293, average IC50; read-out: HEK cell assay. How it is done:
In Vitro BACE Cell-Based Assay […] Cells stably expressing Amyloid Precursor Protein (APP) were plated at a density of 40K cells/well in 96 well plates (Costar). The cells were cultivated for 24 hours at 37° C. and 5% CO2 in DMEM supplemented with 10% FBS. The test compounds were then added to cells in 10-point dose response concentrations with the starting concentration being either 100 μM or 10 μM. The compounds were diluted from stock solutions in DMSO and the final DMSO concentration of the test compounds on cells was 0.1%. […] The IC50 of the compound was calculated from the percent of control or percent inhibition of Aβ40 as a function of the concentration of the test compound. The sandwich ELISA to detect Aβ40 was performed in 96 well microtiter plates, which were pre-treated with goat anti-rabbit IgG (Pierce). […] The optimal concentration for the pAb40 antibody was 3 μg/ml in Superblock/TBS (Pierce) that was supplemented with 0.05% Tween 20 (Sigma). […] Cellular supernatants were incubated with the capture antibody for 3 h at 4° C., followed by 3 wash steps in TBS-tween (0.05%). The detecting antibody incubation was for 2 h at 4° C., again followed by the wash steps as described previously. The final readout of the ELISA is Time-Resolved Fluorescence (counts per minute) using Delfia reagents Streptavidin-Europium and Enhancement solutions (Perkin Elmer) and the Victor 2 multilabel counter (Perkin Elmer).
For `NC1=N[C@@]2(CO[C@H]1C1CCCCC1)c1cc(-c3cccnc3F)ccc1Oc1cnc(Cl)cc12` (racemic) [Example 56A, (3′S,6′S)-3-chloro-6′-cyclohexyl-7-(2-fluoropyridin-3-yl)-2′,6′-dihydrospiro[chromeno[2,3-c]pyridine-5,3′-[1,4]oxazin]-5′-amine], the IC50 is 138 nM.
As to `NC1=N[C@]2(CO[C@H]1C1CCCCC1)c1cc(-c3cccnc3F)ccc1Oc1cnc(Cl)cc12` (racemic) [Example 56B, (3′R,6′S)-3-chloro-6′-cyclohexyl-7-(2-fluoropyridin-3-yl)-2′,6′-dihydrospiro[chromeno[2,3-c]pyridine-5,3′-[1,4]oxazin]-5′-amine], the IC50 was 452 nM.
The same measure, in the same setting: in the case of `CC(C)(C)COc1ccc2c(c1)[C@]1(COCC(N)=N1)c1cc(Br)ccc1O2` [Example 67a, (3R)-2′-bromo-7′-(2,2-dimethylpropoxy)-6H-spiro[1,4-oxazine-3,9′-xanthen]-5-amine] it was 587 nM.

Staying with this assay, now noted: average IC50, cell assay, HEK cells.
Take `NC1=N[C@]2(CCO1)c1cc(-c3cccnc3F)ccc1Oc1c2cc(-c2ccnc(F)c2)nc1F` (racemic) [compound 103]: the IC50 stood at 6.9 nM.

The same assay, now with this note: average IC50; read-out: HEK cell assay.
For `COc1cc(F)c2c(c1)[C@@]1(CCSC(N)=N1)c1cc(-c3cccnc3F)ccc1O2` (racemic) [compound 191], the IC50 stood at 374 nM.
